Tests used:
[1] = tested on: cumulus-oocyte complexes (cumulus expansion); experiment: Cumulus expansion assay in vitro; assay type: cell-based, mice; conditions: in competition with PGE2
Protocol: Folliculogenesis was induced in immature female mice (strain: CD1 (ICR) from Charles River) at an age of 14-18 days by a single dose (intraperitoneal) of 10 I.U. of PMSG (Pregnant Mare Serum Gonadotropin; Sigma G-4877, lot 68H0909). 47-50 hours after the injection, the ovaries were removed and the cumulus-oocyte complexes were removed. The cumulus complex is not yet expanded at this stage.
The cumulus-oocyte complexes were then incubated with prostaglandin E2 (PGE2) (0.3 μM), vehicle control (ethanol) or test substances for 20-24 hours. Medium: alpha-MEM medium with 0.1 mM IBMX, pyruvates (0.23 mM) glutamines (2 mM), pen/strep 100 IU/ml pen. and 100 μg/ml strep. and HSA (8 mg/ml). Cumulus expansion was then established through the division into four stages (according to Vanderhyden et al. Dev Biol. 1990 August; 140(2):307-317).

[2] = biological target: T1, EP2 subtype of the human PGE2 receptor (Homo sapiens, UniProt P43116); experiment: cellular cAMP agonism assay; assay type: cell-based; conditions: without PGE2
T1 construct: host or cells: cells in a cell culture plate
T1 sequence (P43116 whole entry): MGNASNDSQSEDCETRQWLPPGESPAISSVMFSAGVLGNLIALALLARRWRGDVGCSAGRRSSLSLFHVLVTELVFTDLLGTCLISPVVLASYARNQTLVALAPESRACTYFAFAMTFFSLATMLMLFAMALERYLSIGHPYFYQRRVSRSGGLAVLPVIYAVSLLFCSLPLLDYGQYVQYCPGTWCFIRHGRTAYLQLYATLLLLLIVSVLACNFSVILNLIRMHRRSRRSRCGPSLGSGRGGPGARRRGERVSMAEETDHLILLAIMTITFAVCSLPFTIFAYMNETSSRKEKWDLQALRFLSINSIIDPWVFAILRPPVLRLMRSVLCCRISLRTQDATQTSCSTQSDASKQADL
Protocol: The binding of PGE2 to the EP2 subtype of the human PGE2 receptor induces activation of membrane-associated adenylate cyclases and leads to the formation of cAMP. In the presence of the phosphodiesterase inhibitor IBMX, cAMP which has accumulated due to this stimulation and been released by cell lysis is employed in a competitive detection method. In this assay, the cAMP in the lysate competes with cAMP-XL665 for binding of an Eu cryptate-labelled anti-cAMP antibody.
The two signals are measured in a suitable measuring instrument with a time lag, i.e. after the background fluorescence has declined.
The substance solutions (0.75 μl) introduced into an into an assay plate and 30% DMSO were dissolved in 16 μl of a KRSB+IBMX stimulation solution (1× Krebs-Ringer Bicarbonate Buffer; Sigma-Aldrich # K-4002; including 750 μM 3-isobutyl-1-methylxanthine Sigma-Aldrich # I-7018), and then 15 μl thereof were transferred into a media-free cell culture plate which has been washed with KRSB shortly beforehand.
After incubation at room temperature (RT; volume: ˜15 μl) for 60 minutes, the reaction was then stopped by adding 5 μl of lysis buffer and incubated at RT for a further 20 min (volume: ˜20 μl). The cell lysate was then transferred into a measuring plate and measured in accordance with the manufacturer's instructions (cyclic AMP kit Cisbio International # 62AMPPEC).

Row | Compound | suppression of the expansion of the cumulus ([1]; 100-200 μM) | suppression of cumulus expansion ([1]; 5 μM) | effect in the cellular agonism test [2]
1 | CC(C)Oc1ccc2c(=O)c3cc(C(=O)O)ccc3oc2c1 [AH 6809, reference compound] | approx. 30% |  | 
2 | Cc1[nH]c2c(F)ccc(C)c2c1CCNC(=O)c1cc2ccc(C(=O)NCC(N)=O)cc2[nH]1 [Example 6, 2-N-[2-(7-fluoro-2,4-dimethyl-1H-indol-3-yl)ethyl]-6-N-carbamoylmethyl-1H-indole-2,6-dicarboxamide] |  | approx. 67% | no inhibition
